Experimental data as given in the SangsterLogP compilation.

Columns and labels:
[1] = not given; remark: listed apart in the source
[2] = method code SF-RC, from DOI: 10.1002/jps.2600730807, PMID: 6491907
[3] = method code SF-HPLC, from PMID: 3219139; settings: pH 9.0
[4] = method code SF-AS, from DOI: 10.1016/s0960-894x(99)00527-2, PMID: 10571171; settings: pH 7.0
[5] = method code SF-RC, from DOI: 10.1016/0378-5173(86)90124-9
[6] = not given; remark: listed apart in the source
[7] = method code SF-AS, from DOI: 10.1248/cpb.25.1350, PMID: 890858; settings: pH 6.5
[8] = method code SF-GLC, from DOI: 10.1021/je990149u
[9] = not given; remark: listed apart in the source
[10] = method code SF-AS, from DOI: 10.1562/0031-8655(2002)076<0127:dlbcop>2.0.co;2, PMID: 12194207; settings: pH 7.3
[11] = method code SF-RC, from PMID: 9639294; settings: pH 7.5
[12] = not given; remark: listed apart in the source
[13] = method code SF, from DOI: 10.1021/jm00079a001, PMID: 1732531; settings: pH 7.4
[14] = method code SF-HPLC, from DOI: 10.1211/0022357001774101, PMID: 10813545
[15] = method code SF, from DOI: 10.1016/0378-5173(85)90077-8
[16] = not given; remark: listed apart in the source
[17] = method code SF-HPLC, from DOI: 10.1023/a:1016359301852, PMID: 24271710
[18] = method code SF-RC, from PMID: 3346819; settings: pH 7.4
[19] = method code SF-RC, from DOI: 10.1002/jps.2600770619, PMID: 3171939; settings: pH 2.0
[20] = method code SF-HPLC, from PMID: 8932441; settings: pH 7.4
[21] = method code SF-AS, from DOI: 10.1562/0031-8655(2003)0780411sacotn2.0.co2, PMID: 14626671; settings: pH 6.8
[22] = not given; remark: listed apart in the source
[23] = method code SF-HPLC, from Huang, H.; YU, D.; Wang, C.; Shi, S.; Shi, J. (2014). Determination of apparent oil/water partition coefficient of spinosin. Yaowu fenxi zazhi, 34(3)497-499.; settings: pH 7.4
[24] = method code SF-AS, from DOI: 10.1002/qua.560100722; settings: pH 7.8
[25] = method code SF-RC, from DOI: 10.1016/j.nucmedbio.2014.03.016, PMID: 24776092; settings: pH 7.4
[26] = not given; remark: listed apart in the source
[27] = method code SF, from DOI: 10.1016/s0928-0987(97)10019-7; settings: pH 7.4
[28] = not given; remark: listed apart in the source
[29] = pH 7.4
[30] = not given; remark: listed apart in the source
[31] = method code SF-AS, from DOI: 10.1021/jm00371a014, PMID: 6716401; settings: pH 7.4
[32] = not given; remark: listed apart in the source
[33] = method code SF-AS, from DOI: 10.1021/ja00198a050
[34] = method code SF-HPLC, from Xiong, Ð. (2009). Apparent partiton coefficient of hawthorn leaf flavonoids in phospholipids complex. Chinese Traditional Patent Medicine, 31(7)1075-1078.

CC(C)(C)NC(=O)[C@@H]1C[C@@H]2CCCC[C@@H]2CN1C[C@@H](O)[C@H](Cc1ccccc1)NC(=O)[C@H](CC(N)=O)NC(=O)c1ccc2ccccc2n1
logP: 3

COc1cc(CN2C(=O)N(Cc3cccc(C(=O)Nc4cnc(C)cn4)c3)C(Cc3ccccc3)C(O)C(O)C2Cc2ccccc2)cc(OC)c1 (stereo not given)
logP [1]: 5.59

CC1OC(OC2C(O)CC(OC3C(O)CC(OC4CCC5(C)C(CCC6C5CC(O)C5(C)C(C7COC(=O)C7)CCC65O)C4)OC3C)OC2C)CC(O)C1O (stereo not given)
logP [2]: 1.25

COC(=O)C1=C(C)NC(C)=C(C(=O)O[C@@H]2CCCN(Cc3ccccc3)C2)[C@@H]1c1cccc([N+](=O)[O-])c1 (relative stereo)
logD [3]: 3.47

O=C(NCCN(CCNC(=O)c1ccc2cccnc2c1O)CCNC(=O)c1ccc2cccnc2c1O)c1ccc2cccnc2c1O
logD [4]: 1

CCCCC[C@H](O)/C=C/[C@@H]1[C@@H](C/C=C\CCCC(=O)OCc2ccccc2)[C@@H](O)C[C@H]1O
logP [5]: 4.11

CC1(C)CC[C@]2(C(=O)O)CC[C@]3(C)C(=CC[C@@H]4[C@@]5(C)CC[C@H](O)C(C)(C)[C@@H]5CC[C@]43C)[C@@H]2C1
logP [6]: 3.63

CCC(=O)OCc1c(CSSCc2cnc(C)c(OC(=O)CC)c2COC(=O)CC)cnc(C)c1OC(=O)CC
logD [7]: 2.68

CCCCCCCCCCOC(=O)c1ccccc1C(=O)OCCCCCCCCCC
logP [8]: 9.05

CO[C@@H](CC[C@H](C)[C@H]1O[C@@]23CC(OC(=O)C[C@H]([C@@H](C)O)OC(=O)C[C@](O)(O2)[C@H](C)CC3(C)C)[C@@H]1C)c1cc(O)ccc1Br
logP [9]: 5.4

COC(=O)CCC1=C(C)c2cc3cc(C)c(cc4cc(C)c(cc5nc(cc1n2)C(CCC(=O)OC)=C5C)[nH]4)[nH]3
logD [10]: 3.95

CCOC(=O)C1=C(COCCOCCNC(=O)C(C)(C)C)NC(C)=C(C(=O)OC)C1c1cccc(Cl)c1Cl (stereo not given)
logD [11]: 2.12

Cc1ccccc1Nc1nc2ccc(C(=O)NC(CCCCNC(=O)C=Cc3cccnc3)C(=O)NC(CCCC(=O)O)C(=O)NC3(C(N)=O)CCCCC3)cc2[nH]1 (stereo not given)
logP [12]: 1.88

C=CCC(NC(=O)C(Cc1ccccc1)NS(=O)(=O)N1CCOCC1)C(=O)NC(CC1CCCCC1)C(=O)C(F)(F)C(=O)NCC(C)CC (stereo not given)
logD [13]: 4.63

C[C@]12CC[C@H]3[C@@H](CCC4=CC(=O)CC[C@@]43C)[C@@H]1CC[C@@H]2OC(=O)CCC1CCCC1
logP [14]: 4.89

CCCCCCCC(=O)OCC(=O)[C@@]1(O)CC[C@H]2[C@@H]3CCC4=CC(=O)CC[C@]4(C)[C@H]3C(=O)C[C@@]21C
logP [15]: 4.22

COc1cccc2c1C(=O)c1c(O)c3c(c(O)c1C2=O)C[C@@](O)(C(=O)CO)C[C@@H]3O[C@H]1C[C@H](N)[C@H](I)[C@H](C)O1
logP [16]: 1.53

C#CC1(OC(=O)c2ccn(C)c2)CCC2C3CCC4=CC(=O)CCC4C3CCC21C (stereo not given)
logP [17]: 4.44

CC(CNC(=O)c1ccccc1)C(=O)OCC(=O)C12OC(C)(C)OC1CC1C3CCC4=CC(=O)C=CC4(C)C3(F)C(O)CC12C (stereo not given)
logD [18]: 2.3

CC1(C)C(OC(=O)CCC(=O)O)CC[C@@]2(C)[C@H]1CC[C@]1(C)[C@H]2C(=O)C=C2[C@@H]3C[C@@](C)(C(=O)O)CC[C@]3(C)CC[C@]21C (stereo not given in full)
logD [19]: 2.81

CCCCOC(=O)NS(=O)(=O)c1ccccc1-c1ccc(Cn2c(CCC)nc(CC)c2C(C)=O)c(F)c1
logD [20]: 1.72

COc1c(O)c2c(=O)cc(OC)c3c4c(OC)cc(=O)c5c(O)c(NCCN6CCOCC6)c6c(c(c1C(C(C)=O)=C(C)C6)c23)c54
logD [21]: 1.15

O=C(NNCc1ccncc1)C1CCCN1C(=O)C(Cc1ccc(Cl)c(Cl)c1)NS(=O)(=O)Cc1ccccc1 (stereo not given)
logP [22]: 2.57

COc1cc2oc(-c3ccc(O)cc3)cc(=O)c2c(O)c1[C@@H]1O[C@H](CO)[C@@H](O)[C@H](O)[C@H]1O[C@@H]1O[C@H](CO)[C@@H](O)[C@H](O)[C@H]1O
logD [23]: 0.56

COc1cccc2c1C(=O)c1c(O)c3c(c(O)c1C2=O)CC(O)(C(C)=O)CC3OC1CC(NC(=O)CNC(=O)CN(C)C)C(O)C(C)O1 (stereo not given)
logD [24]: 1.12

C[C@H](CCC(=O)NCc1cn(CCF)nn1)[C@H]1CC[C@H]2[C@@H]3[C@H](O)C[C@@H]4C[C@H](O)CC[C@]4(C)[C@H]3CC[C@]12C
logD [25]: 1.61

COc1ccc(CCN(C)CCCC(C#N)(c2cc(OC)c(OC)c(OC)c2)C(C)C)cc1OC (stereo not given)
logP [26]: 3.71

CC(C)(C)S(=O)(=O)C[C@@H](Cc1ccccc1)C(=O)N[C@@H](Cc1cnc[nH]1)C(=O)N[C@@H](CC1CCCCC1)[C@@H](O)[C@@H](O)C1CC1
logD [27]: 2.75

CCn1c(=O)c2c(nc(C=Cc3ccc(C(=O)OCCOCCOCCOCCOCCOCCOCCOCCOCCOC)c(OC)c3)n2C)n(CC)c1=O
logP [28]: 2.8

CCN1CC(C(O)C(CC2CCCCC2)NC(=O)C(Cc2cscn2)NC(=O)C(CC(=O)N2CCOCC2)Cc2ccccc2)OC1=O (stereo not given)
logD [29]: 2.83

CCCN(CCC)C(=O)Cc1c(-c2ccc(OC(=O)NCCc3ccc(O)c(O)c3)cc2)nc2ccc(Cl)cn12
logP [30]: 4.3

COc1cccc2c1C(=N)c1c(O)c3c(c(O)c1C2=O)C[C@](O)(C(=O)CO)C[C@@H]3O[C@H]1C[C@@H](N2CCOC[C@@H]2C#N)[C@@H](O)[C@@H](C)O1
logD [31]: 1.97

N#CC(CCN1CCC(C(N)=O)(N2CCCCC2)CC1)(c1ccccc1)c1ccccc1
logP [32]: 3.91

CC(C)(C)c1ccc2c(c1)OCCOCCOCCOCCOCCOCCOCCOCCO2
logP [33]: 1.89

C[C@@H]1O[C@@H](OC[C@H]2O[C@@H](Oc3c(-c4ccc(O)c(O)c4)oc4cc(O)cc(O)c4c3=O)[C@H](O)[C@@H](O)[C@@H]2O)[C@H](O)[C@H](O)[C@H]1O
logP [34]: -0.09
